Measured values as given in paper PMC12155096 (International Journal of Molecular Sciences, 2025).

biological target: Photinus pyralis (firefly) luciferase (Photinus pyralis, UniProt P08659); assay: biochemical; format: biochemical
Sequence (P08659 whole entry): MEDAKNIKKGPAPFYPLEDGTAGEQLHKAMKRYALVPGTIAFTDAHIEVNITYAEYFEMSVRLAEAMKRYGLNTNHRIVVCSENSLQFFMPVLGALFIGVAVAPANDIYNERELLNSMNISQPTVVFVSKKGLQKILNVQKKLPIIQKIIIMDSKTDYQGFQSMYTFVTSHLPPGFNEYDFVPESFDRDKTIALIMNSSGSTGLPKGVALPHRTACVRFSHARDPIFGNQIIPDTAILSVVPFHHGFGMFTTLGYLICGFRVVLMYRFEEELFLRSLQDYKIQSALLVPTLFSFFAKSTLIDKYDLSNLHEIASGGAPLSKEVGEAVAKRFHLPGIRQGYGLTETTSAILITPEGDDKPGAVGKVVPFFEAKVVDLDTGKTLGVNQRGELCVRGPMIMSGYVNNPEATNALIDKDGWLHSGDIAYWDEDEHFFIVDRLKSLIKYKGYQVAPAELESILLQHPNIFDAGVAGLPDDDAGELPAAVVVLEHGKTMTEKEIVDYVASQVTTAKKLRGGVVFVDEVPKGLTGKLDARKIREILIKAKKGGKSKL

Compound | Luciferase IC50 | Luciferase IC50 (half-maximal inhibitory concentration)
CCCC[P+](CC)(CCCC)CCCC.CCOP(=O)([O-])OCC | Inactive | –
COC(=O)c1c(C)cc(O)c(C)c1O | – | Inactive
CCCCCCCC[N+](C)(CCCCCCCC)CCCCCCCC.O=S(=O)([O-])C(F)(F)F | – | Inactive
Cl.Cl.NCCNc1cccc2ccccc12 | Inactive | –
CCCC[N+](C)(CCCC)CCCC.O=S(=O)([N-]S(=O)(=O)C(F)(F)F)C(F)(F)F | – | Inactive
CCCCCCCCCCCCCC[P+](CCCC)(CCCC)CCCC.CCCCCCCCCCCCc1ccc(S(=O)(=O)[O-])cc1 | – | Inactive
Cc1cc(CCC(=O)OCCOCCOCCOC(=O)CCc2cc(C)c(O)c(C(C)(C)C)c2)cc(C(C)(C)C)c1O | – | Inactive
CCCCCCCCCCCCCC[P+](CCCCCC)(CCCCCC)CCCCCC.O=S(=O)([N-]S(=O)(=O)C(F)(F)F)C(F)(F)F | – | Inactive
CC[C@]12CCCN3CCc4c(n(c5ccccc45)C(=O)C1)[C@@H]32 [(-)-Eburnamonine] | – | Inactive
C=CCOC(Cn1ccnc1)c1ccc(Cl)cc1Cl.O=S(=O)(O)O (stereo not shown) [Imazalil sulfate] | – | Inactive

biological target: human CYP2C19 (Homo sapiens, UniProt P33261); assay: not given
Sequence (P33261 whole entry): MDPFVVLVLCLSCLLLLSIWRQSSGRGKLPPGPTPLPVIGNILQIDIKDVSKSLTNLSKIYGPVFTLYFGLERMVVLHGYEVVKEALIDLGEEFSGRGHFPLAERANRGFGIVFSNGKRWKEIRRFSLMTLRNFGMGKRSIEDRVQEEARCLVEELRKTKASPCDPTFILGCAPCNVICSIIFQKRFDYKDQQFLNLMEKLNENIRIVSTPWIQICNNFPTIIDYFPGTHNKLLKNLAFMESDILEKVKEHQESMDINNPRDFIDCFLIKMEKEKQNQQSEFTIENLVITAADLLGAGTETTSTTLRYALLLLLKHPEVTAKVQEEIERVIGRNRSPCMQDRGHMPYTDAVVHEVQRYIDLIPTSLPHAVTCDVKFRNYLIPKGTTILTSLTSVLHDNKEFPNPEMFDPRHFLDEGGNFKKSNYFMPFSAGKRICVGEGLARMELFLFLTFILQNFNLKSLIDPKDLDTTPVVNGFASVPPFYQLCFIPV

Compound | CYP2C19 Efficacy | IC50 [µM] | CYP2C19 IC50 (half-maximal inhibitory concentration) | CYP2C19 Efficacy (in parenthesis)
CCCC[P+](CC)(CCCC)CCCC.CCOP(=O)([O-])OCC | 70.71 ± 33.56 (-88 ± 37) % | – | – | –
COC(=O)c1c(C)cc(O)c(C)c1O | 6.41 ± 1.34 (-140 ± 12) % | – | – | –
CCCCCCCC[N+](C)(CCCCCCCC)CCCCCCCC.O=S(=O)([O-])C(F)(F)F | – | 12.9 | – | –
Cl.Cl.NCCNc1cccc2ccccc12 | 24.7 ± 6.17 (-146 ± 5) % | – | – | –
CCCC[N+](C)(CCCC)CCCC.O=S(=O)([N-]S(=O)(=O)C(F)(F)F)C(F)(F)F | – | – | Inactive | –
CCCCCCCCCCCCCC[P+](CCCC)(CCCC)CCCC.CCCCCCCCCCCCc1ccc(S(=O)(=O)[O-])cc1 | 21.96 ± 3.74 (-142 ± 38) % | 22 | – | 21.96 ± 3.74 (-142 ± 38) %
Cc1cc(CCC(=O)OCCOCCOCCOC(=O)CCc2cc(C)c(O)c(C(C)(C)C)c2)cc(C(C)(C)C)c1O | – | 4.01 | – | 4.01 ± 1.12 (-130 ± 10) %
CCCCCCCCCCCCCC[P+](CCCCCC)(CCCCCC)CCCCCC.O=S(=O)([N-]S(=O)(=O)C(F)(F)F)C(F)(F)F | – | 43.7 | – | –
CC[C@]12CCCN3CCc4c(n(c5ccccc45)C(=O)C1)[C@@H]32 [(-)-Eburnamonine] | – | 6.17 | – | –
C=CCOC(Cn1ccnc1)c1ccc(Cl)cc1Cl.O=S(=O)(O)O (stereo not shown) [Imazalil sulfate] | – | 0.22 | – | 0.22 ± 0.08 (-143 ± 13) %

biological target: T1, human CYP1A2 (Homo sapiens, UniProt P05177); assay: not given
T1 sequence (P05177 1-516): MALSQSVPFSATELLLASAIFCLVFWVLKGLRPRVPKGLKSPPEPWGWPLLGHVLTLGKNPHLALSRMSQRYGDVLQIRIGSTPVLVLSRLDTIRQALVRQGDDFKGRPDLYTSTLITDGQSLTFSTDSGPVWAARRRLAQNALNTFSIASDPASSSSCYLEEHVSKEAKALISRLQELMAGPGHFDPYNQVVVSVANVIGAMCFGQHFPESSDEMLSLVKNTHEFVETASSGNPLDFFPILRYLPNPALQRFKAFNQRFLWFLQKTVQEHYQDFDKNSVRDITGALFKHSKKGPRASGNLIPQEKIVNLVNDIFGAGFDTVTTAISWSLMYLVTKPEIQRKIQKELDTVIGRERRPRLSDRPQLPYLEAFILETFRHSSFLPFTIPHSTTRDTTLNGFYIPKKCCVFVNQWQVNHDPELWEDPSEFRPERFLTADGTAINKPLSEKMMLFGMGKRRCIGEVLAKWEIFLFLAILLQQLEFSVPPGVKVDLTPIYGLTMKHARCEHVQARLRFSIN

Compound | CYP1A2 IC50 | IC50 [µM] | CYP1A2 Efficacy | CYP1A2 AC50 (half-maximal activity concentration) | CYP1A2 Efficacy (in parenthesis) | CYP1A2 IC50 (half-maximal inhibitory concentration)
CCCC[P+](CC)(CCCC)CCCC.CCOP(=O)([O-])OCC | Inactive | – | – | – | – | –
COC(=O)c1c(C)cc(O)c(C)c1O | – | 0.24 | – | – | – | –
CCCCCCCC[N+](C)(CCCCCCCC)CCCCCCCC.O=S(=O)([O-])C(F)(F)F | – | 47.6 | – | – | – | –
Cl.Cl.NCCNc1cccc2ccccc12 | – | – | 0.57 ± 0.07 (-100 ± 5) % | – | – | –
CCCC[N+](C)(CCCC)CCCC.O=S(=O)([N-]S(=O)(=O)C(F)(F)F)C(F)(F)F | – | 50.6 | – | – | – | –
CCCCCCCCCCCCCC[P+](CCCC)(CCCC)CCCC.CCCCCCCCCCCCc1ccc(S(=O)(=O)[O-])cc1 | – | 24.3 | – | Inconclusive inhibitor | 24.26 ± 16.34 (-39 ± 1) % | –
Cc1cc(CCC(=O)OCCOCCOCCOC(=O)CCc2cc(C)c(O)c(C(C)(C)C)c2)cc(C(C)(C)C)c1O | – | – | – | – | – | Inactive
CCCCCCCCCCCCCC[P+](CCCCCC)(CCCCCC)CCCCCC.O=S(=O)([N-]S(=O)(=O)C(F)(F)F)C(F)(F)F | – | 37 | – | – | – | –
CC[C@]12CCCN3CCc4c(n(c5ccccc45)C(=O)C1)[C@@H]32 [(-)-Eburnamonine] | – | 24.1 | – | – | – | –

biological target: human CYP2D6 (Homo sapiens, UniProt P10635); assay: not given
Sequence (P10635 whole entry): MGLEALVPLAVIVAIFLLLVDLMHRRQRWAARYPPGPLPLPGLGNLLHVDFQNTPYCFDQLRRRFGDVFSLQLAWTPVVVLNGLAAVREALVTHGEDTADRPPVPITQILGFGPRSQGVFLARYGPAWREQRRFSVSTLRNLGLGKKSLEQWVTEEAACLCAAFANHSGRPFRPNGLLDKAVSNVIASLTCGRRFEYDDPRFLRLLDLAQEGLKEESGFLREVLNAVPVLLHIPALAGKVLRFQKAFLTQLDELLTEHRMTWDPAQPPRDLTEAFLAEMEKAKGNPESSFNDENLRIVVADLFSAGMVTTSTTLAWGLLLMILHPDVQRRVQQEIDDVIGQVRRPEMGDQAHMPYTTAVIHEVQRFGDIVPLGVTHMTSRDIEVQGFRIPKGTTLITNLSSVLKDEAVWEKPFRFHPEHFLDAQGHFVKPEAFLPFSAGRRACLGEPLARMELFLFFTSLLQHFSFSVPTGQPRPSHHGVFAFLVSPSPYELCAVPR

Compound | IC50 [µM] | CYP2D6 Efficacy | CYP2D6 Efficacy (in parenthesis)
CCCC[P+](CC)(CCCC)CCCC.CCOP(=O)([O-])OCC | 0.06 | – | –
COC(=O)c1c(C)cc(O)c(C)c1O | 33 | – | –
CCCCCCCC[N+](C)(CCCCCCCC)CCCCCCCC.O=S(=O)([O-])C(F)(F)F | 0.19 | – | –
Cl.Cl.NCCNc1cccc2ccccc12 | – | 5.04 ± 0.58 (-104 ± 5) % | –
CCCC[N+](C)(CCCC)CCCC.O=S(=O)([N-]S(=O)(=O)C(F)(F)F)C(F)(F)F | 0.48 | – | –
CCCCCCCCCCCCCC[P+](CCCC)(CCCC)CCCC.CCCCCCCCCCCCc1ccc(S(=O)(=O)[O-])cc1 | 0.21 | 0.21 ± 0.10 (-107 ± 3) % | 0.21 ± 0.1 (-107 ± 3) %
Cc1cc(CCC(=O)OCCOCCOCCOC(=O)CCc2cc(C)c(O)c(C(C)(C)C)c2)cc(C(C)(C)C)c1O | 9.78 | – | 9.78 ± 0 (-91 ± 3) %
CCCCCCCCCCCCCC[P+](CCCCCC)(CCCCCC)CCCCCC.O=S(=O)([N-]S(=O)(=O)C(F)(F)F)C(F)(F)F | 0.25 | – | –
C=CCOC(Cn1ccnc1)c1ccc(Cl)cc1Cl.O=S(=O)(O)O (stereo not shown) [Imazalil sulfate] | 5.1 | – | 5.1 ± 0.35 (-106 ± 4) %

biological target: CYP3A4 (Homo sapiens, UniProt P08684); assay: not given
Sequence (P08684 whole entry): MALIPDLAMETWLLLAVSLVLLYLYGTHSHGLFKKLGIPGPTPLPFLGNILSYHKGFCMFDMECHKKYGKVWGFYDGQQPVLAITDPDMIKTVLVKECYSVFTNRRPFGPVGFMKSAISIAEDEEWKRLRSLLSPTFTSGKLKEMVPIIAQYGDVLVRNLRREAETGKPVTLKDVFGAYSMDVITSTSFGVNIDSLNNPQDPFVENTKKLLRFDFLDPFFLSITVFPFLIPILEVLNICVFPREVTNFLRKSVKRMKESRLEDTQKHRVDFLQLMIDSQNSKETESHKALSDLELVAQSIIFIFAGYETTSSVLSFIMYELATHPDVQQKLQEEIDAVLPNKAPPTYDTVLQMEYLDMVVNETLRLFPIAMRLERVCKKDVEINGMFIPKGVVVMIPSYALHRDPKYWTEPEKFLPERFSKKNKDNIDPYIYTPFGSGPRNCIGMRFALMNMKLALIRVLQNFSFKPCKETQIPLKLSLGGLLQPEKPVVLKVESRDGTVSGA

Compound | CYP3A4 IC50 | IC50 [µM] | AC50 [µM] | CYP3A4 Efficacy (in parenthesis) | CYP3A4 IC50 (half-maximal inhibitory concentration)
CCCC[P+](CC)(CCCC)CCCC.CCOP(=O)([O-])OCC | Inactive | – | – | – | –
COC(=O)c1c(C)cc(O)c(C)c1O | – | 53.2 | – | – | –
CCCCCCCC[N+](C)(CCCCCCCC)CCCCCCCC.O=S(=O)([O-])C(F)(F)F | – | 3.7 | – | – | –
Cl.Cl.NCCNc1cccc2ccccc12 | – | 31.8 | – | – | –
CCCC[N+](C)(CCCC)CCCC.O=S(=O)([N-]S(=O)(=O)C(F)(F)F)C(F)(F)F | – | 67.4 | – | – | –
CCCCCCCCCCCCCC[P+](CCCC)(CCCC)CCCC.CCCCCCCCCCCCc1ccc(S(=O)(=O)[O-])cc1 | – | – | 7.93 | 7.93 ± 2.21 (104 ± 17) % | 7.93 ± 2.21 (104 ± 17) µM
Cc1cc(CCC(=O)OCCOCCOCCOC(=O)CCc2cc(C)c(O)c(C(C)(C)C)c2)cc(C(C)(C)C)c1O | – | 2.56 | – | 2.56 ± 0.17 (-86 ± 4) % | –
CCCCCCCCCCCCCC[P+](CCCCCC)(CCCCCC)CCCCCC.O=S(=O)([N-]S(=O)(=O)C(F)(F)F)C(F)(F)F | – | 3.13 | – | – | –
CC[C@]12CCCN3CCc4c(n(c5ccccc45)C(=O)C1)[C@@H]32 [(-)-Eburnamonine] | – | 4.38 | – | – | –
C=CCOC(Cn1ccnc1)c1ccc(Cl)cc1Cl.O=S(=O)(O)O (stereo not shown) [Imazalil sulfate] | – | 0.12 | – | 0.12 ± 0.02 (-91 ± 3) % | –

biological target: human CYP2C9 (Homo sapiens, UniProt P11712); assay: not given
Sequence (P11712 whole entry): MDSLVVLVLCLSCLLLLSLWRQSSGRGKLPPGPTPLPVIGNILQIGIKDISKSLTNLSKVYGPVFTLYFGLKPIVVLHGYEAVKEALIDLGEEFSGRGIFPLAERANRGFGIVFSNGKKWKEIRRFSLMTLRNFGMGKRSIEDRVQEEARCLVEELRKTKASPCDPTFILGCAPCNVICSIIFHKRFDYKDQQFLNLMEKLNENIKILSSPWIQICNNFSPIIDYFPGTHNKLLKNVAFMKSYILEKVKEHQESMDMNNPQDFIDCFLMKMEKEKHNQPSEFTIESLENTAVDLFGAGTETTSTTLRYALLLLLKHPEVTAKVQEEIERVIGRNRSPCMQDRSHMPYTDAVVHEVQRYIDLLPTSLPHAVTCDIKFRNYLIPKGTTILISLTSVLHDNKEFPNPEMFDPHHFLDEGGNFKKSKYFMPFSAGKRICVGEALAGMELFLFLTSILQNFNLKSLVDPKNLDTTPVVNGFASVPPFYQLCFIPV

Compound | CYP2C9 IC50 | IC50 [µM] | CYP2C9 Efficacy | CYP2C9 Efficacy (in parenthesis)
CCCC[P+](CC)(CCCC)CCCC.CCOP(=O)([O-])OCC | Inactive | – | – | –
COC(=O)c1c(C)cc(O)c(C)c1O | – | 50.2 | – | –
CCCCCCCC[N+](C)(CCCCCCCC)CCCCCCCC.O=S(=O)([O-])C(F)(F)F | – | 28.3 | – | –
Cl.Cl.NCCNc1cccc2ccccc12 | – | – | 17.25 ± 2.37 (-110 ± 3) % | –
CCCC[N+](C)(CCCC)CCCC.O=S(=O)([N-]S(=O)(=O)C(F)(F)F)C(F)(F)F | – | 5.83 | – | –
CCCCCCCCCCCCCC[P+](CCCC)(CCCC)CCCC.CCCCCCCCCCCCc1ccc(S(=O)(=O)[O-])cc1 | – | 15.7 | 15.74 ± 3.82 (-84 ± 8) % | 15.74 ± 3.82 (-84 ± 8) %
Cc1cc(CCC(=O)OCCOCCOCCOC(=O)CCc2cc(C)c(O)c(C(C)(C)C)c2)cc(C(C)(C)C)c1O | – | 0.55 | – | 0.55 ± 0.06 (-101 ± 5) %
CCCCCCCCCCCCCC[P+](CCCCCC)(CCCCCC)CCCCCC.O=S(=O)([N-]S(=O)(=O)C(F)(F)F)C(F)(F)F | – | 6.41 | – | –
CC[C@]12CCCN3CCc4c(n(c5ccccc45)C(=O)C1)[C@@H]32 [(-)-Eburnamonine] | – | 20.1 | – | –
C=CCOC(Cn1ccnc1)c1ccc(Cl)cc1Cl.O=S(=O)(O)O (stereo not shown) [Imazalil sulfate] | – | 0.63 | – | 0.63 ± 0.18 (-107 ± 5) %
